Data from PubChem BioAssay AID330 (DTP/NCI, 2004).
Several values for one entry are separate records, joined by “and”; a condition that tells them apart may be missing. Equal entries are not always repeated. Toxic doses and inconclusive results are not listed. How the source made its calls: active means survival T/C of 150% or more; inactive means T/C below 125% in these data. Peptide text beside a SMILES is read from it. * marks the point of attachment. Boc = CC(C)(C)OC(=O)*

Tested on: P388 leukemia ip, CD2F1 mice, survival T/C
Assay: NCI In Vivo Anticancer Drug Screen. Data for tumor model P388 Leukemia (intraperitoneal) in CD2F1 (CDF1) mice
Settings: endpoint: median survival time, higher = longer survival
Outline: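 Mice carrying the transplanted tumor received test compound or vehicle. Survival was recorded in each group, and the value is the treated-group measurement divided by that of the vehicle-treated control group.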

[1] = dose: 100.0 mg/kg/injection, schedule: Q04DX003 (ip), vehicle: saline with Tween-80
[2] = dose: 200.0 mg/kg/injection, schedule: Q04DX003 (ip), vehicle: saline with Tween-80
[3] = dose: 100.0 mg/kg/injection, schedule: Q01DX001 (ip), vehicle: saline with Tween-80
[4] = dose: 200.0 mg/kg/injection, schedule: Q01DX001 (ip), vehicle: saline with Tween-80
[5] = dose: 400.0 mg/kg/injection, schedule: Q01DX001 (ip), vehicle: saline with Tween-80
[6] = dose: 400.0 mg/kg/injection, schedule: Q04DX003 (ip), vehicle: saline with Tween-80
[7] = dose: 50.0 mg/kg/injection, schedule: Q01DX005 (ip), vehicle: saline with Tween-80
[8] = dose: 100.0 mg/kg/injection, schedule: Q01DX005 (ip), vehicle: saline with Tween-80
[9] = dose: 50.0 mg/kg/injection, schedule: Q01DX005 (ip), vehicle: Klucel (hydroxypropylcellulose) (HPC)
[10] = dose: 100.0 mg/kg/injection, schedule: Q01DX005 (ip), vehicle: Klucel (hydroxypropylcellulose) (HPC)
[11] = dose: 200.0 mg/kg/injection, schedule: Q01DX005 (ip), vehicle: Klucel (hydroxypropylcellulose) (HPC)
[12] = dose: 200.0 mg/kg/injection, schedule: Q01DX005 (ip), vehicle: saline with Tween-80

Measured: T/C

CCO/C=C1\SC(=S)N(c2ccc(C(=O)O)cc2)C1=O
inactive: dose: 4.4 mg/kg/injection, schedule: Q01DX009 (ip), vehicle: saline with Tween-80 104 % of control | dose: 6.6 mg/kg/injection, schedule: Q01DX009 (ip), vehicle: saline with Tween-80 109 % of control | dose: 10.0 mg/kg/injection, schedule: Q01DX009 (ip), vehicle: saline with Tween-80 109 % of control | dose: 15.0 mg/kg/injection, schedule: Q01DX009 (ip), vehicle: saline with Tween-80 109 % of control | [1] 118 % of control | [2] 113 % of control

O=C(/C(=C(/[O-])C(F)(F)F)[n+]1ccc2ccccc2c1)C(F)(F)F
inactive: [3] 100 % of control | [4] 100 % of control and 112 % of control | [5] 104 % of control and 97 % of control

NC(=O)NC1CCCCCCC1
inactive: [1] 100 % of control | [2] 109 % of control | [6] 95 % of control

CCN(CC)CCOC(=O)c1ccc(N)c2ccccc12
inactive: [7] 103 % of control | [8] 100 % of control

CCCCCCCCC(=O)C(=O)c1ccc(O)cc1O
inactive: dose: 50.0 mg/kg/injection, schedule: Q01DX009 (ip), vehicle: Klucel (hydroxypropylcellulose) (HPC) 113 % of control | dose: 100.0 mg/kg/injection, schedule: Q01DX009 (ip), vehicle: Klucel (hydroxypropylcellulose) (HPC) 113 % of control | dose: 200.0 mg/kg/injection, schedule: Q01DX009 (ip), vehicle: Klucel (hydroxypropylcellulose) (HPC) 113 % of control

CN(C)CC(CN(C)C)C(=O)C(C)(C)C
inactive: dose: 3.8 mg/kg/injection, schedule: Q01DX005 (ip), vehicle: saline 99 % of control | dose: 7.5 mg/kg/injection, schedule: Q01DX005 (ip), vehicle: saline 96 % of control | dose: 15.0 mg/kg/injection, schedule: Q01DX005 (ip), vehicle: saline 93 % of control | dose: 30.0 mg/kg/injection, schedule: Q01DX005 (ip), vehicle: saline 105 % of control | dose: 60.0 mg/kg/injection, schedule: Q01DX005 (ip), vehicle: saline 100 % of control and 104 % of control | dose: 120.0 mg/kg/injection, schedule: Q01DX005 (ip), vehicle: saline 104 % of control and 110 % of control

CCN1CC2(COC)C(O)CC(OC)C34C5CC6(O)C(OC)C=C(C5C6OC(=O)c5ccc(OC)c(OC)c5)C(C(OC)C23)C14 (centres undefined)
inactive: dose: 0.05 mg/kg/injection, schedule: Q01DX009 (ip), vehicle: Klucel (hydroxypropylcellulose) (HPC) 90 % of control | dose: 0.05 mg/kg/injection, schedule: Q01DX009 (ip), vehicle: saline with Tween-80 102 % of control | dose: 0.1 mg/kg/injection, schedule: Q01DX009 (ip), vehicle: Klucel (hydroxypropylcellulose) (HPC) 91 % of control | dose: 0.1 mg/kg/injection, schedule: Q01DX009 (ip), vehicle: saline with Tween-80 96 % of control | dose: 0.2 mg/kg/injection, schedule: Q01DX009 (ip), vehicle: Klucel (hydroxypropylcellulose) (HPC) 100 % of control | dose: 0.2 mg/kg/injection, schedule: Q01DX009 (ip), vehicle: saline with Tween-80 91 % of control | dose: 0.4 mg/kg/injection, schedule: Q01DX009 (ip), vehicle: Klucel (hydroxypropylcellulose) (HPC) 116 % of control | dose: 0.4 mg/kg/injection, schedule: Q01DX009 (ip), vehicle: saline with Tween-80 91 % of control

O=C(O)c1cccc(SS(=O)(=O)c2cccc(C(=O)O)c2)c1
inactive: [9] 109 % of control | [10] 112 % of control | [11] 107 % of control

CCCCCCCCCC[N+]1(CC)CCCC1
inactive: dose: 3.12 mg/kg/injection, schedule: Q01DX009 (ip), vehicle: saline 104 % of control | dose: 6.25 mg/kg/injection, schedule: Q01DX009 (ip), vehicle: saline 100 % of control

CC(SCc1ccccc1)C(NC(=O)CCl)C(=O)O (centres undefined)
inactive: [3] 100 % of control | [4] 97 % of control | [5] 91 % of control

CCC(=O)C1(C)OC1C(C)CC(C)C1OC(=O)CC2(O)CC=C(C)C(O2)/C(C)=C/CCCC(OC2CC(OC(N)=O)C(O)C(C)O2)/C=C/C(C)C(O)C1C (centres undefined)
inactive: dose: 6.2 mg/kg/injection, schedule: Q01DX005 (ip), vehicle: Klucel (hydroxypropylcellulose) (HPC) 109 % of control | dose: 12.5 mg/kg/injection, schedule: Q01DX005 (ip), vehicle: Klucel (hydroxypropylcellulose) (HPC) 98 % of control | dose: 25.0 mg/kg/injection, schedule: Q01DX005 (ip), vehicle: Klucel (hydroxypropylcellulose) (HPC) 103 % of control | [9] 108 % of control

CCN(CC)CCn1cnc(C#N)c1N
inactive: dose: 50.0 mg/kg/injection, schedule: Q01DX009 (ip), vehicle: saline 101 % of control | dose: 100.0 mg/kg/injection, schedule: Q01DX009 (ip), vehicle: saline 100 % of control | dose: 200.0 mg/kg/injection, schedule: Q01DX009 (ip), vehicle: saline 108 % of control

N#CCSCC(NC(=O)c1ccccc1)C(=O)O (centres undefined)
inactive: dose: 50.0 mg/kg/injection, schedule: Q01DX005 (ip), vehicle: saline 100 % of control | dose: 100.0 mg/kg/injection, schedule: Q01DX005 (ip), vehicle: saline 87 % of control | dose: 200.0 mg/kg/injection, schedule: Q01DX005 (ip), vehicle: saline 97 % of control

CCCCCCC(=O)/C=C/c1ccc(OCc2ccccc2)c(OCc2ccccc2)c1
inactive: dose: 6.25 mg/kg/injection, schedule: Q01DX005 (ip), vehicle: saline with Tween-80 92 % of control | dose: 12.5 mg/kg/injection, schedule: Q01DX005 (ip), vehicle: saline with Tween-80 92 % of control

CCCCNc1nc(C(F)(F)F)nc2nc[nH]c12
inactive: [9] 103 % of control | [10] 94 % of control | [11] 94 % of control

C1CCN(P(N2CCCCC2)N2CCCCC2)CC1
inactive: dose: 25.0 mg/kg/injection, schedule: Q04DX003 (ip), vehicle: saline with Tween-80 100 % of control | dose: 50.0 mg/kg/injection, schedule: Q04DX003 (ip), vehicle: saline with Tween-80 100 % of control | [1] 102 % of control and 104 % of control

C/C(=N\Nc1cc(C)c2cccc(C)c2n1)c1ccccn1
inactive: [7] 105 % of control | [8] 91 % of control | [12] 91 % of control

CN1CCCC2Cc3ccccc3CC21 (centres undefined)
inactive: dose: 6.25 mg/kg/injection, schedule: Q04DX002 (ip), vehicle: Klucel (hydroxypropylcellulose) (HPC) 97 % of control | dose: 12.5 mg/kg/injection, schedule: Q04DX002 (ip), vehicle: Klucel (hydroxypropylcellulose) (HPC) 102 % of control | dose: 25.0 mg/kg/injection, schedule: Q04DX002 (ip), vehicle: Klucel (hydroxypropylcellulose) (HPC) 104 % of control | dose: 100.0 mg/kg/injection, schedule: Q04DX002 (ip), vehicle: Klucel (hydroxypropylcellulose) (HPC) 101 % of control

O=C(CCCSCCCl)Nc1c([N+](=O)[O-])cc([N+](=O)[O-])cc1S(=O)(=O)O
inactive: dose: 3.13 mg/kg/injection, schedule: Q04DX003 (ip), vehicle: DMSO 110 % of control | dose: 6.25 mg/kg/injection, schedule: Q04DX003 (ip), vehicle: DMSO 111 % of control | dose: 50.0 mg/kg/injection, schedule: Q04DX003 (ip), vehicle: DMSO 118 % of control | dose: 100.0 mg/kg/injection, schedule: Q04DX003 (ip), vehicle: olive oil, sesame oil, peanut oil 120 % of control | dose: 150.0 mg/kg/injection, schedule: Q04DX003 (ip), vehicle: DMSO 114 % of control

COC(=O)[C@H]1[C@H]2C[C@@H]3c4[nH]c5cc(OC)ccc5c4CCN3C[C@H]2C[C@@H](OC(=O)c2cccc(N)c2)[C@@H]1OC
inactive: [7] 101 % of control | [8] 97 % of control | [12] 97 % of control

COc1cc(OC)cc(C2OC(N)=C(O)C2=O)c1 (centres undefined)
inactive: [9] 93 % of control | [10] 90 % of control | [11] 91 % of control

O=C(C[N+]12CN3CN(CN(C3)C1)C2)c1ccc(Cl)cc1
inactive: dose: 66.0 mg/kg/injection, schedule: Q04DX003 (ip), vehicle: saline sonified 104 % of control | dose: 100.0 mg/kg/injection, schedule: Q04DX003 (ip), vehicle: saline sonified 122 % of control | dose: 150.0 mg/kg/injection, schedule: Q04DX003 (ip), vehicle: saline sonified 118 % of control

O=C(c1cccs1)C1Cc2ccccc2C1=O (centres undefined)
inactive: [1] 95 % of control | [2] 90 % of control | [6] 90 % of control

O=C1C(Cl)=C(Cl)C(=O)C(/C=C/N2CCOCC2)=C1Cl
inactive: dose: 50.0 mg/kg/injection, schedule: Q01DX001 (ip), vehicle: saline with Tween-80 102 % of control | [3] 98 % of control

COC(=O)C(CO)NC(=O)C(Cc1ccccc1)NC(=O)OC(C)(C)C (stereo not drawn) (Boc-Phe-Ser-OMe; configuration not given here)
inactive: [9] 99 % of control | [10] 105 % of control | [11] 100 % of control

Cc1[nH]cc2c1C(c1ccccc1F)=NCC(=O)N2
inactive: [1] 101 % of control | [2] 100 % of control | [6] 101 % of control
